Experimental data: patent publication US20220233553A1, “CELLULAR SENESCENCE ACTIVATING COMPOUNDS” (UNIVERSIDAD NACIONAL AUTONOMA DE MEXICO, priority 2019, published 2022)

Columns and labels:
[1] = system: PC-3 (prostate); test: Effect on cell lines (CI50, % growth inhibition); assay type: cell-based; details: for IC50: Homo sapiens, PC-3, read-out: CI50 ± EE, μM PC-3 (prostate)
[2] = system: K562 (leukemia); test: Effect on cell lines (CI50, % growth inhibition); assay type: cell-based; details: Homo sapiens; for IC50: K562, read-out: CI50 ± EE, μM K562 (leukemia)
[3] = system: U251 (CNS); test: Effect on cell lines (CI50, % growth inhibition); assay type: cell-based; details: Homo sapiens; for IC50: U-251, read-out: CI50 ± EE, μM U251 (CNS)
[4] = system: HCT-15 (colon); test: Effect on cell lines (CI50, % growth inhibition); assay type: cell-based; details: Homo sapiens; for IC50: HCT-15, read-out: CI50 ± EE, μM HCT-15 (colon)
[5] = system: SW-620; test: Cytotoxicity against colon cancer cell lines, 24, 48 and 72 hours; assay type: cell-based
[6] = Blood parameters of the treated mice
[7] = system: HCT-116; test: Cytotoxicity against colon cancer cell lines, 24, 48 and 72 hours; assay type: cell-based
[8] = system: HCT-15; test: as above; assay type: cell-based
[9] = system: HCT-116 cancer cells; test: Xenotransplantation study, antitumor activity; assay type: in vivo, mice; details: for reduction in tumor size: vs untreated mouse
Text: The arrows indicate the days of compound administration, in a regimen of 1 administration per week for 3 weeks, each point represents the average and SD of 6 mice.
The arrows indicate the days of administration, with 3 administrations per week for 3 weeks, each point representing the mean±SD of 6 mice.

[10] = system: breast (MCF-7); test: % growth inhibition in cell lines; assay type: cell-based; details: Homo sapiens, MCF7
[11] = system: HCT-116 line; test: Apoptosis induction, double labeling with annexin V and IP; assay type: cell-based; details: 30 μM, 72 hours of treatment
Text: FIG. 2. Results of the apoptosis induction using a double labeling with annexin V and IP, due to the effect of compound In.

[12] = Toxicity in nu/nu mice (LD50, weight, physical or behavioral changes); assay type: in vivo
Text: FIG. 7. […] Each point in the graphs represents the mean±SD of the weight of 3 mice per experimental group.

[13] = system: proliferating cell nuclear antigen (PCNA); test: PCNA immunolabelling of xenotransplanted tumor tissue; details: groups treated at different doses; control group 54.81%±15.63
[14] = system: β-galactosidase enzyme; test: β-galactosidase activity (cellular senescence) in colon cancer cell lines; assay type: cell-based; details: 72 hours, 30 μM, colon cancer cell lines HCT-116 and HCT-15
Method: FIG. 12. A) β-galactosidase activity in HCT-116 cells, B) β-galactosidase activity in HCT-15 cells, C) Cell control of the HCT-116 cell line, D) HCT-116 cells treated with In […] for 72 hours.
Now, as already mentioned above, the mechanism by which In exerts an antitumor effect without generating cytotoxicity on healthy cells is through the induction of cellular senescence.

[15] = system: HCT-116 cell xenotransplantation; test: Cell morphology in tumor tissues (hematoxylin-eosin, DAPI); details: tumor tissues of treated mice vs control group
[16] = system: lung (SKUL); test: % growth inhibition in cell lines; assay type: cell-based
[17] = 2 mg/Kg, administration 3 (times a week)

For CC1(C)c2oncc2C[C@]23C[C@]24CC[C@]2(C)C([C@]5(C)CC[C@H](C(C)(C)O)O5)[C@@H](O)C[C@@]2(C)C4CCC13 (some centres unmarked) [Ii], the IC50 [1] was 13 ± 3.56 µM, the IC50 [2] was 11 ± 1.05 µM and the IC50 [3] was 11.3 ± 1.55 µM. It also gave an IC50 [4] of 10.2 ± 0.77 µM.

With N.N.[Cl][Pt][Cl] [Cisplatin] the IC50 ([5]; SW-620, incubation 24 h) was 18 ± 0.5 µM, the IC50 ([5]; SW-620, incubation 48 h) was 13.9 ± 0.4 µM and the IC50 ([5]; SW-620, incubation 72 h) was 9.09 ± 0.3 µM. The Alanine aminotransferase [6, 17] was 75.21 UL, the Aspartate aminotransferase [6, 17] was 197.32 UL and the Creatinine [6, 17] was 43.3 μM/l. For the same compound, the Erythrocytes [6, 17] was 7.14e+12 L⁻¹, the Glucose [6, 17] was 7.80 mmol/L and the Hemoglobin [6, 17] was 113 g/L. For the same compound, the Leukocytes [6, 17] was 1.6e+09 L, the Lymphocytes [6, 17] was 0.52 × × 10^9/l and the Urea [6, 17] was 9.06 mmol/L. The Alanine aminotransferase ([6]; 4 mg/Kg, once a week) was 62.89 UL, the Aspartate aminotransferase ([6]; 4 mg/Kg, once a week) was 151.25 UL and the Creatinine ([6]; 4 mg/Kg, once a week) was 29.06 μM/l. The Erythrocytes ([6]; 4 mg/Kg, once a week) was 7.36e+12 L⁻¹, the Glucose ([6]; 4 mg/Kg, once a week) was 8.56 mmol/L and the Hemoglobin ([6]; 4 mg/Kg, once a week) was 115 g/L. It also gave a Leukocytes ([6]; 4 mg/Kg, once a week) of 2.1e+09 L, a Lymphocytes ([6]; 4 mg/Kg, once a week) of 5.2e+08 L⁻¹ and a Urea ([6]; 4 mg/Kg, once a week) of 7.57 mmol/L. The Leukocytes ([6]; 4 mg/kg once a week and mg/kg three times a week for 3 weeks) was “decreased leukocytes”, the IC50 ([7]; HCT-116, incubation 24 h) was 10.8 ± 0.7 µM and the IC50 ([7]; HCT-116, incubation 48 h) was 8.37 ± 0.5 µM. The IC50 ([7]; HCT-116, incubation 72 h) was 3.09 ± 0.3 µM, the IC50 ([8]; HCT-15, incubation 24 h) was 12.5 ± 0.5 µM and the IC50 ([8]; HCT-15, incubation 48 h) was 10.7 ± 0.6 µM. For the same compound, the IC50 ([8]; HCT-15, incubation 72 h) was 4.68 ± 0.3 µM and the “tumor reduction compared with In 250 mg/kg” value ([9]; 2 mg/kg three times a week for 21 days) was “equivalent”.

In the case of CC(=O)O[C@H]1C[C@@]2(C)C3CCC4C(C)(C)C(=O)C=C[C@@]45C[C@@]35CC[C@]2(C)C1[C@]1(C)CC[C@H](C(C)(C)OC(C)=O)O1 (some centres unmarked) [Ic], the IC50 [1] is reported as 13.9 ± 0.324 µM, the IC50 [2] is reported as > 100 µM and the IC50 [3] is reported as 58.4 ± 4 µM. The IC50 [4] was > 100 µM.

CC(=O)O[C@H]1C[C@@]2(C)C3CCC4C(C)(C)/C(=N/O)CC[C@@]45C[C@@]35CC[C@]2(C)C1[C@]1(C)CC[C@H](C(C)(C)OC(C)=O)O1 (some centres unmarked) [Ig] gave an IC50 [1] of 12.6 ± 2.42 µM, an IC50 [2] of 15.2 ± 2.35 µM and an IC50 [3] of 21.4 ± 1.67 µM. It also gave an IC50 [4] of 28.9 ± 3.17 µM.

For CC1(C)C(=O)CC[C@]23C[C@]24CC[C@]2(C)C([C@]5(C)CC[C@H](C(C)(C)O)O5)[C@@H](O)C[C@@]2(C)C4CCC13 (some centres unmarked) [In, Argentantine A], the inhibition at 50 µM [10] was 26.6%, the apoptosis induction [11] was “only induced apoptosis in the HCT-116 line” and the inhibition at 50 µM ([1]; 50 μM, PC-3) was 20.2%. The IC50 [1] was 20.2 ± 3.44 µM, the “physical or behavioral changes” value ([12]; 500 mg/kg once a week and 250 mg/kg three times a week for three weeks) was “no physical or behavioral changes” and the weight loss ([12]; 250 and 500 mg/kg) was “does not cause weight loss”. The toxicity ([12]; 500, 250 or 125 mg/kg once a week for 3 weeks, nu/nu mice) was “does not show toxicity”, the LD50 at 3 weeks ([12]; mouse, in vivo, intraperitoneal, nu/nu mice, read-out: mean lethal dose (LD50)) was > 500 mg/kg and the IC50 ([5]; Homo sapiens, SW-620, incubation 24 h) was 115.6 ± 0.4 µM. The IC50 ([5]; Homo sapiens, SW-620, incubation 48 h) was 72.46 ± 0.2 µM, the IC50 ([5]; Homo sapiens, SW-620, incubation 72 h) was 61.3 ± 1.2 µM and the “quantification of PCNA (percentage of PCNA positive cells)” value [13] was 10-20%. The IC50 ([7]; Homo sapiens, HCT-116, incubation 24 h) was 87.83 ± 0.7 µM, the IC50 ([7]; Homo sapiens, HCT-116, incubation 48 h) was 53.33 ± 0.2 µM and the IC50 ([7]; Homo sapiens, HCT-116, incubation 72 h) was 43.17 ± 0.4 µM. For the same compound, the IC50 [2] was 38.6 ± 4.47 µM, the inhibition at 50 µM ([2]; 50 μM, K562) was 38.6% and the β-galactosidase enzyme activity [14] was “observed predominantly in cells of the HCT-116 line”. The “fragmented nuclei (DAPI labeling) as signal of cell death” value [15] was “no fragmented nuclei”, the IC50 [3] was 27.3 ± 1 µM and the inhibition at 50 µM ([3]; U-251, 50 μM, U251) was 27.3%. For the same compound, the IC50 [4] was 31.7 ± 1.1 µM, the inhibition at 50 µM ([4]; 50 μM, HCT-15) was 31.7% and the IC50 ([8]; Homo sapiens, HCT-15, incubation 24 h) was 95.43 ± 0.6 µM. The IC50 ([8]; Homo sapiens, HCT-15, incubation 48 h) was 59.7 ± 1.3 µM, the IC50 ([8]; Homo sapiens, HCT-15, incubation 72 h) was 44.8 ± 0.9 µM and the inhibition at 50 µM [16] was 0%. For the same compound, the “reduction in tumor size” value ([9]; 250 mg/kg once a week for 21 days) was 49.1%, the “reduction of the tumor” value ([9]; 250 mg/kg three times a week for 21 days, vs untreated mice) was 78.1% and the “reduction in tumor size” value ([9]; 500 mg/kg once a week for 21 days) was 48.8%.
